In PubChem BioAssay AID624376 (Broad Institute, 2012):
Results filed as inconclusive are left out.

Test system: LMP1-induced NF-kappaB luciferase reporter cells, luminescence
Assay: inhibitors of EBV LMP1 NF-kappaB signaling – cell-based, luciferase reporter, luminescence, dry powder, set 2, dose response (AID 624376)

`O=C(C[C@H]1C[C@H]2c3cc(NC(=O)c4ccc5c(c4)OCO5)ccc3O[C@H]2[C@H](CO)O1)NCc1ccc(Oc2ccccc2)cc1` and `O=C(C[C@H]1C[C@@H]2c3cc(NC(=O)c4ccc5c(c4)OCO5)ccc3O[C@@H]2[C@@H](CO)O1)NCc1ccc(Oc2ccccc2)cc1` are within 1.5-fold of each other in AC50: 18.7 µM for the first, 24.5 µM for the second.

First: Cc1cc(C(=O)Nc2ccc3c(c2)C(=O)N(C)[C@@H]2CC[C@H](CC(=O)NCc4ccc(-c5ccccc5)cc4)O[C@@H]2CO3)no1
Second: Cc1cc(C(=O)Nc2ccc3c(c2)C(=O)N(C)[C@@H]2CC[C@H](CC(=O)NCc4ccc(-c5ccccc5)cc4)O[C@H]2CO3)no1
The AC50 of the first is 6.1-fold higher: 9.74 µM for the first, 1.6 µM for the second.

`CCCNC(=O)c1cc2c(c(-c3cccc(-c4cccc(F)c4)c3)n1)[C@H](CCO)N([S@@](=O)C(C)(C)C)C2` and `C[C@@H]1CN([C@@H](C)CO)S(=O)(=O)c2ccc(C#Cc3ccncc3)cc2O[C@H]1CN(C)C(=O)Nc1ccc2c(c1)OCO2` are within 1.5-fold of each other in AC50: 22.7 µM for the first, 31.6 µM for the second.

Going from `O=C(C[C@H]1CC[C@H]2[C@@H](COC[C@@H](O)CN2Cc2ccc3c(c2)OCO3)O1)Nc1ccc(-c2ccccc2)cc1` to `O=C(C[C@@H]1CC[C@@H]2[C@H](COC[C@H](O)CN2Cc2ccc3c(c2)OCO3)O1)Nc1ccc(-c2ccccc2)cc1`, the AC50 falls from 24.1 µM to 7.97 µM (3-fold).

For `O=C(C[C@@H]1C[C@@H]2c3cc(NC(=O)c4ccc5c(c4)OCO5)ccc3O[C@@H]2[C@@H](CO)O1)NCc1ccc(Oc2ccccc2)cc1`, the AC50 was 9.85 µM.
